Assay results as given in patent US10654854B2 (INTRA-CELLULAR THERAPIES, INC., priority 2016, dated 2020).
Structures can show the parent of a compound that is named as a salt.

Assays:
[1] = hygroscopicity and stability of salt forms (salt screen); type: physicochemical; details: salt form
Method: In an effort to find new salts and polymorphs of ITI-007, an extensive salt screen was undertaken. […] Eventually, a toluenesulfonic acid addition salt (tosylate) was prepared, as described in WO 2009/114181, but no other stable salts were found. Finally, a major salt screen was carried out, wherein the free base compound was studied in different solvent systems and under different conditions, and then systematically screened using a selection of over 100 acids under different conditions and with different solvent, co-solvent and anti-solvent systems, to identify possible salt forms. Following extensive screening and experimentation, the following novel salts were discovered, characterized, and found to be reproducible and stable: oxalate, 4-aminosalicylate, and cyclamate.
(§1) Solubility of free base in various solvents is evaluated, and based on the results of the solubility range, suitable solvents are selected for the salt screen. The salt screen is divided into seven separate screens, using 90 different counter ions, six different solvents, and including four different crystallization methods, slurry experiments, cooling crystallization, evaporation and precipitation experiments. The counterions are selected based upon availability and potential suitability to form pharmaceutically acceptable acid addition salts. They include the class I, II and III acids identified in Stahl P. H., Wermuch C. G. (editors), Handbook of Pharmaceutical Salts, IUPAC (2008).

[2] = Dynamic Vapour Sorption (DVS); type: physicochemical; details: for DVS total mass uptake: at 95 RH %; for hygroscopicity (assessment from DVS): from total mass uptake at 95 RH %; for DVS Hygroscopicity (%): scale-up synthesis batch
Method: Dynamic Vapour Sorption (DVS): The Dynamic Vapour Sorption studies are performed using a Surface Measurement Systems Ltd. DVS-1 No Video, equipment #2126. The sample is loaded into a balance pan, typically 20-30 mg, and equilibrated at 0% RH. After the material was dried, the RH is increased with 10% per step for 1 hour per increment, ending at 95% RH. After completion of the sorption cycle, the sample was dried using the same method. The software used for data collection is DVSWin v3.01 No Video. Data analysis is performed using DVS Standard Analysis Suite v6.3.0 (Standard).

muscarinic = details: cited from earlier work
[3] = solubility of free base in water and organic solvents; type: physicochemical; details: free base form; in water and in many organic solvents
Method: as §1

H1 histaminergic = H1 histaminergic (Homo sapiens, UniProt P35367); details: cited from earlier work
5-HT2C = target: T1, 5-HT2C (Homo sapiens, UniProt P28335); details: cited from earlier work
T1 sequence (P28335 33-458): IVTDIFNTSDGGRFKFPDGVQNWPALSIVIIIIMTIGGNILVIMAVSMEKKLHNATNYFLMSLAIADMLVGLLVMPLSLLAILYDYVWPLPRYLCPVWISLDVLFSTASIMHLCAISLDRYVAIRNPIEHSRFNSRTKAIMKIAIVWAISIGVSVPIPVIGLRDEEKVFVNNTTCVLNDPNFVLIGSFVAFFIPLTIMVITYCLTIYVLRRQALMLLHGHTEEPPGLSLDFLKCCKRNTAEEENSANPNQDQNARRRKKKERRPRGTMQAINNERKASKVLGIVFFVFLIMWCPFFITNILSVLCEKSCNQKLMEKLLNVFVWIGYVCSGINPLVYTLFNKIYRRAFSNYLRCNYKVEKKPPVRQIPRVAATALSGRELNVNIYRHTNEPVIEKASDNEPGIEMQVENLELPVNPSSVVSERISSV

Sequence of H1 histaminergic (P35367 whole entry): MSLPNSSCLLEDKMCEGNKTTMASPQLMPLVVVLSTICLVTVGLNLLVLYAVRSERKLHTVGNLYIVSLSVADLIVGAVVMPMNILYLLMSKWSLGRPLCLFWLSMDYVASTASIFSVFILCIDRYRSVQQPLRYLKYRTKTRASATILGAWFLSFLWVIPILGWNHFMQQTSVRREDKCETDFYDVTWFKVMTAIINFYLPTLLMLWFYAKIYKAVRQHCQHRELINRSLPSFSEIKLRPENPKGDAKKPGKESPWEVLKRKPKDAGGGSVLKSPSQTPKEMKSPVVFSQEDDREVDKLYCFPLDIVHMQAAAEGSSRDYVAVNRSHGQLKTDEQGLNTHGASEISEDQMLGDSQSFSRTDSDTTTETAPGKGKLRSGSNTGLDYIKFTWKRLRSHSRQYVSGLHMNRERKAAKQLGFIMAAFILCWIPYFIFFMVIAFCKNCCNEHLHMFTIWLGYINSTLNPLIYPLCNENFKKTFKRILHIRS

Compound	stability [1]	DVS total mass uptake [2] [%]	hygroscopicity (assessment from DVS) [2]	DVS Hygroscopicity (%) [2] [%]	binding to receptors associated with cognitive and metabolic side effects (muscarinic)	solubility [3]	binding to receptors associated with cognitive and metabolic side effects (H1 histaminergic)	binding to receptors associated with cognitive and metabolic side effects (5-HT2C)	DVS Hygroscopicity (%) ([2]; listed as FP-212 cyclamate salt)
CN1CCN2c3c(cccc31)[C@@H]1CN(CCCC(=O)c3ccc(F)cc3)CC[C@@H]12 [4-aminosalicylate salt, 1-(4-fluoro-phenyl)-4-((6bR,10aS)-3-methyl-2,3,6b,9,10,10a-hexahydro-1H,7H-pyrido[3′,4′:4,5]pyrrolo[1,2,3-de]quinoxalin-8-yl)-butan-1-one]	stable	5	moderately hygroscopic	5					
CN1CCN2c3c(cccc31)[C@@H]1CN(CCCC(=O)c3ccc(F)cc3)CC[C@@H]12 [ITI-007, 1-(4-fluoro-phenyl)-4-((6bR,10aS)-3-methyl-2,3,6b,9,10,10a-hexahydro-1H,7H-pyrido[3′,4′:4,5]pyrrolo[1,2,3-de]quinoxalin-8-yl)-butan-1-one]					negligible binding	poor solubility	negligible binding	negligible binding	
CN1CCN2c3c(cccc31)[C@@H]1CN(CCCC(=O)c3ccc(F)cc3)CC[C@@H]12 [cyclamate salt, 1-(4-fluoro-phenyl)-4-((6bR,10aS)-3-methyl-2,3,6b,9,10,10a-hexahydro-1H,7H-pyrido[3′,4′:4,5]pyrrolo[1,2,3-de]quinoxalin-8-yl)-butan-1-one]	stable	8	somewhat hygroscopic						8
CN1CCN2c3c(cccc31)[C@@H]1CN(CCCC(=O)c3ccc(F)cc3)CC[C@@H]12 [oxalate salt, 1-(4-fluoro-phenyl)-4-((6bR,10aS)-3-methyl-2,3,6b,9,10,10a-hexahydro-1H,7H-pyrido[3′,4′:4,5]pyrrolo[1,2,3-de]quinoxalin-8-yl)-butan-1-one]	stable	5	moderately hygroscopic	5					
